Measurements reported in paper PMC8205226, “HIV-1 Integrase Inhibitors with Modifications That Affect Their Potencies against Drug Resistant Integrase Mutants” (ACS Infectious Diseases, 2021).

Legend:
Format in all cases: cell-based
WT HIV-1 = test: single-round infectivity assay, WT HIV-1 IN vector; details: Human immunodeficiency virus 1, read-out: EC50 values WT, vector carrying WT HIV-1 IN, single round infection, n = 4; new compounds
Experimental: (§1) Figure 2 Antiviral activities of the new compounds against RAL-resistant mutants. The EC50 values were determined using a vector that carries WT HIV-1 IN and the RAL-resistant mutants in a single round infection assay. […] Error bars represent the standard deviations of independent experiments, n = 4, performed in triplicate. The graph has a maximum value of 550 nM.
(§2) WT and mutant HIV-1 viral vectors were used in single-round infectivity assays to determine the antiviral potencies (EC50 values) of the compounds and the effects of the mutants on the EC50 values as previously described.[30],[54] Single round infectivity measurements were determined as done previously.[38]
(§3) The vector pNLNgoMIVR-ΔENV.LUC has been described previously.[26] To produce the new IN mutants used in this study, the IN open reading frame was removed from pNLNgoMIVR-ΔENV.LUC by digestion with KpnI and SalI, and the resulting fragment was inserted between the KpnI and SalI sites of pBluescript KS+. Using that construct as the wild-type template, we prepared the following HIV-1 IN mutants using the QuikChange II XL site directed mutagenesis kit (Agilent Technologies, Santa Clara, CA) protocol: N117A, N117H, P142A, P142H, P142S, Y143C, Y143H, S230R, R231G, and R231K. The following sense oligonucleotides were used with matching cognate antisense oligonucleotides (not shown) (Integrated DNA Technologies, Coralville, IA) in the mutagenesis: N117A, 5′-[…]-3′; N117H, 5′-[…]-3′; P142A, 5′-[…]-3′; P142H, 5′-[…]-3′; P142S, 5′-[…]-3′; Y143C, 5′- […]-3′; Y143H, 5′-[…]-3′; S230R, 5′- […]-3′; R231G, 5′-[…]-3′; R231K, 5′-[…]-3′.

HIV-1 IN mutant Y143R = test: single-round infectivity assay, Y143R IN mutant
Experimental: as §1, §2, §3

HIV-1 IN mutant N155H = test: single-round infectivity assay, N155H IN mutant
Experimental: as §1, §2, §3

[1] = system: HIV-1 IN double mutant G140S/Q148H; test: single-round infectivity assay, G140S/Q148H IN double mutant
Experimental: as §1, §2, §3

HIV-1 IN mutant N117A = test: single-round infectivity assay, N117A IN mutant
Experimental: (§4) The EC50 values were determined using a vector that carries the IN mutant in a single round infection assay. […] Error bars represent the standard deviations of independent experiments, n = 4, performed in triplicate.
as §2, §3

HIV-1 IN mutant N117H = test: single-round infectivity assay, N117H IN mutant
Experimental: as §4, §2, §3

HIV-1 IN mutant G118R = test: single-round infectivity assay, G118R IN mutant
Experimental: as §4, §2, §3

HIV-1 IN mutant S119R = test: single-round infectivity assay, S119R IN mutant
Experimental: as §4, §2, §3

HIV-1 IN mutant Y143C = test: single-round infectivity assay, Y143C IN mutant; details: EC50 compound / EC50 DTG
Experimental: as §4, with “Figure 4 Mutations in the β5-α3 loop affect the antiviral potencies of the new compounds. The” for “The”
as §2, §3

HIV-1 IN mutant Y143H = test: single-round infectivity assay, Y143H IN mutant; details: EC50 compound / EC50 DTG
Experimental: as §4, with “Figure 4 Mutations in the β5-α3 loop affect the antiviral potencies of the new compounds. The” for “The”
as §2, §3

HIV-1 IN mutant P142A = test: single-round infectivity assay, P142A IN mutant
Experimental: as §4, with “Figure 4 Mutations in the β5-α3 loop affect the antiviral potencies of the new compounds. The” for “The”
as §2, §3

HIV-1 IN mutant P142H = test: single-round infectivity assay, P142H IN mutant
Experimental: as §4
Single round infectivity measurements were determined as done previously.[38]
as §3

HIV-1 IN mutant P142S = test: single-round infectivity assay, P142S IN mutant
Experimental: as §4, with “Figure 4 Mutations in the β5-α3 loop affect the antiviral potencies of the new compounds. The” for “The”
as §2, §3

HIV-1 IN mutant S230R = test: single-round infectivity assay, S230R IN mutant
Experimental: as §4, with “Figure 5 Antiviral potencies of the new compounds against IN with mutations in the […]. The” for “The”
as §2, §3

HIV-1 IN mutant R231G = test: single-round infectivity assay, R231G IN mutant
Experimental: as §4, with “Figure 5 Antiviral potencies of the new compounds against IN with mutations in the […]. The” for “The”
as §2, §3

HIV-1 IN mutant R231K = test: single-round infectivity assay, R231K IN mutant
Experimental: as §4, with “Figure 5 Antiviral potencies of the new compounds against IN with mutations in the […]. The” for “The”
as §2, §3

[2] = fold change in EC50, IN mutant versus WT HIV-1

`CS(=O)(=O)CCc1cnc2c(c1)c(N)c(C(=O)NCc1ccc(F)cc1F)c(=O)n2O` [6u, 4-Amino-N-(2,4-difluorobenzyl)-1-hydroxy-6-(2-(methylsulfonyl)ethyl)-2-oxo-1,2-dihydro-1,8-naphthyridine-3-carboxamide] was tested, and the EC50 (WT HIV-1) was 27 ± 3.2 nM, the “ratio of the EC50s (our compound relative to DTG) against Y143R” value (HIV-1 IN mutant Y143R; EC50 compound / EC50 DTG) was 6.4 and the EC50 (HIV-1 IN mutant Y143R; Human immunodeficiency virus 1, read-out: EC50 values Y143R) was 27.5 ± 0.4 nM. For the same compound, the “FC Y143R” value (HIV-1 IN mutant Y143R; [2]) was 1.0, the “ratio of the EC50s (our compound relative to DTG) against N155H” value (HIV-1 IN mutant N155H; EC50 compound / EC50 DTG) was 9.1 and the EC50 (HIV-1 IN mutant N155H; Human immunodeficiency virus 1, read-out: EC50 values N155H) was 32.8 ± 6 nM. The “FC N155H” value (HIV-1 IN mutant N155H; [2]) was 1.2, the “ratio of the EC50s (our compound relative to DTG) against G140S/Q148H” value ([1]; EC50 compound / EC50 DTG) was 20.3 and the EC50 ([1]; Human immunodeficiency virus 1, read-out: EC50 values G140S/Q148H) was 118 ± 31.3 nM. The “FC G140S/Q148H” value [1, 2] was 4.4, the “ratio of the EC50s (our compound relative to DTG) against N117A” value (HIV-1 IN mutant N117A; EC50 compound / EC50 DTG) was 30.0 and the EC50 (HIV-1 IN mutant N117A; Human immunodeficiency virus 1, read-out: EC50 values N117A) was 15 nM. For the same compound, the “FC N117A” value (HIV-1 IN mutant N117A; [2]) was 0.6, the “ratio of the EC50s (our compound relative to DTG) against N117H” value (HIV-1 IN mutant N117H; EC50 compound / EC50 DTG) was 24.3 and the EC50 (HIV-1 IN mutant N117H; Human immunodeficiency virus 1, read-out: EC50 values N117H) was 58.3 ± 5.9 nM. For the same compound, the “FC N117H” value (HIV-1 IN mutant N117H; [2]) was 2.2, the “ratio of the EC50s (our compound relative to DTG) against G118R” value (HIV-1 IN mutant G118R; EC50 compound / EC50 DTG) was 16.5 and the EC50 (HIV-1 IN mutant G118R; Human immunodeficiency virus 1, read-out: EC50 values G118R) was 214 ± 26.3 nM. For the same compound, the “FC G118R” value (HIV-1 IN mutant G118R; [2]) was 7.9, the “ratio of the EC50s (our compound relative to DTG) against S119R” value (HIV-1 IN mutant S119R; EC50 compound / EC50 DTG) was 24.5 and the EC50 (HIV-1 IN mutant S119R; Human immunodeficiency virus 1, read-out: EC50 values S119R) was 56.4 ± 11 nM. The “FC S119R” value (HIV-1 IN mutant S119R; [2]) was 2.1, the “ratio of the EC50s (our compound relative to DTG) against Y143C” value (HIV-1 IN mutant Y143C) was 31.4 and the “ratio of the EC50s (our compound relative to DTG) against Y143H” value (HIV-1 IN mutant Y143H) was 17.0. For the same compound, the “ratio of the EC50s (our compound relative to DTG) against P142A” value (HIV-1 IN mutant P142A; EC50 compound / EC50 DTG) was 20.3, the EC50 (HIV-1 IN mutant P142A; Human immunodeficiency virus 1, read-out: EC50 values P142A) was 50.8 ± 6.4 nM and the “ratio of the EC50s (our compound relative to DTG) against P142H” value (HIV-1 IN mutant P142H; EC50 compound / EC50 DTG) was 16.1. For the same compound, the EC50 (HIV-1 IN mutant P142H; Human immunodeficiency virus 1, read-out: EC50 values P142H) was 45.1 ± 5.2 nM, the “ratio of the EC50s (our compound relative to DTG) against P142S” value (HIV-1 IN mutant P142S; EC50 compound / EC50 DTG) was 23.4 and the EC50 (HIV-1 IN mutant P142S; Human immunodeficiency virus 1, read-out: EC50 values P142S) was 51.5 ± 2.4 nM. The “ratio of the EC50s (our compound relative to DTG) against S230R” value (HIV-1 IN mutant S230R; EC50 compound / EC50 DTG) was 19.1, the EC50 (HIV-1 IN mutant S230R; Human immunodeficiency virus 1, read-out: EC50 values S230R) was 88 ± 14.5 nM and the “FC S230R” value (HIV-1 IN mutant S230R; [2]) was 3.3. For the same compound, the “ratio of the EC50s (our compound relative to DTG) against R231G” value (HIV-1 IN mutant R231G; EC50 compound / EC50 DTG) was 22.5, the EC50 (HIV-1 IN mutant R231G; Human immunodeficiency virus 1, read-out: EC50 values R231G) was 31.5 ± 4 nM and the “FC R231G” value (HIV-1 IN mutant R231G; [2]) was 1.2. The “ratio of the EC50s (our compound relative to DTG) against R231K” value (HIV-1 IN mutant R231K; EC50 compound / EC50 DTG) was 18.7, the EC50 (HIV-1 IN mutant R231K; Human immunodeficiency virus 1, read-out: EC50 values R231K, single round infection, n = 4) was 78.4 ± 9.9 nM and the “FC R231K” value (HIV-1 IN mutant R231K; [2]) was 2.9.
